Patent US4288609A, “Quaternary ammonium derivatives of adamantane with antimicrobic activity” (priority 1976, dated 1981)
Like-named read-outs stand apart in the source and are kept apart here.

How the values were obtained:
[1] = test system: Staphylococcus Aureus Tour; experiment: Speed of sterilising action, Staphylococcus Aureus (Table 3); format: cell-based
Description: (§1) The strains, inoculants, culture broths and experimental methods are as already seen for calculating the M.I.C. in vitro. The antimicrobic substances were tested at concentrations of 0.1, 0.25, 0.5 and 1 g/l, the contact times taken into consideration are 0, 1, 2.5, 5, 7.5, 10, 15, 30 and 60 minutes.
(§2) The samples which at the 7th day of incubation still had no growth of micro-organisms which could be observed macroscopically and/or microscopically were considered sterile.
(§3) The results are recorded in Table 3 in terms of sterilization time expressed in minutes.

[2] = Acute oral toxicity in mice (Table 4); settings: mouse, in vivo, po, LD50, oral, mice, 14 days
Description: The substances were administered orally to groups of 10 female mice CF1 of average weight of about 20 grams, in aqueous solution and in such way that the total volume administered would be in each case 1 ml/100 g of weight.

Diplococcus Pneum. ISM = experiment: M.I.C. in vitro, gram+ Diplococcus Pneum. (Table 1); format: cell-based; settings: read-out: M.I.C.
Description: (§4) The method for evaluating the activity in vitro against bacteria, fungi and protozoa consists in introducing calculated quantities of the substance, the activity of which it is desired to test, into culture media already inoculated with a predetermined number of test germs.
(§5) After 24 or 48 hours of incubation at 30° or 37° C., according to the micro-organism being tested, it is possible to evaluate the growth of the same in the culture broth; in this manner the minimum concentration (M.I.C.) which inhibits the growth of the micro-organisms in vitro is determined.
In table 1 there are recorded the M.I.C. values in γ/ml of the products subject of the present invention, against certain gram+ and gram- bacterial strains, some of which are pathogenic towards human beings.

[3] = test system: Candida Albicans SKF 2270; experiment: Speed of sterilising action, Candida Albicans (Table 3); format: cell-based
Description: as §1, §2, §3

[4] = test system: Trichophyton Mentagrophytes Ist. Pasteur; experiment: Speed of sterilising action, Trichophyton Mentagrophytes (Table 3); format: cell-based
Description: as §1, §2, §3

[5] = test system: Trych. Mentagr. 1st.Pastuer; experiment: MIC mildews, Trichophyton mentagrophytes (Table 2); format: cell-based; settings: Sabourand broth
Description: as §4, §5
Inoculation with Trichophyton mentagrophytes and Microsporum canis was effected in a ratio of 1% of the volume of medium used.
(§6) For the fungi Sabourand broth was used as a culture medium, whilst for the protozoa Kupferberg Trichomonas broth with 5% of horse serum was used.

Pseudomonas Aeruginosa = experiment: Antibacterial activity in vivo with topical treatment (Table 5); parameters: species or system female CF1 albino mice; settings: for animals alive on the 15th day / animals dead on the 15th day: 10 animals; for % survivors: topical, 15th day; for efficacy in vivo (in words): other concentrations considered
Description: After their backs have been shaved, female CF1 albino mice weighing 18-22 g are scorched (under ether anaesthetic) for 15 seconds with a pad of brass previously immersed in boiling water (7-8% of the body surface). After 90 minutes there is applied to the scorched area 0.1 ml of a suspension of Pseudomonas Aeruginosa bacteria having 15% transmittance at 650 nm. The bacterial strain in question produces a high incidence of mortality, induced by septicemic diffusion from the point of infection. After 90 minutes, with the aid of a glass rod suitably flattened at one end, the preparation containing a known concentration of the compound under examination is applied locally. The treatment is continued for a total of six days (once per day). On the fifteenth day the percentage of survivors to the tested doses in recorded.
The carrier used for applying the compounds under examination is an aqueous 0.75% solution of carboxymethyl-cellulose. The concentrations of the compounds tested are 2, 1, 0.5 and 0.25% by weight.

[6] = test system: Trich. Vaginalis ISM 66/22; experiment: MIC protozoa, Trichomonas vaginalis (Table 2); format: cell-based; settings: +10% serum (head), Kupferberg Trichomonas broth with 5% of horse serum
Description: as §4, §5
Inoculation with Trichomonas vaginalis and Trichomonas foetus, obtained from cultures transplanted every other day to make them lively, was effected in a ratio of 3.5% of the volume of medium used.
as §6

[7] = test system: Trichomonas Vaginalis ISM 66/22; experiment: Speed of sterilising action, Trichomonas Vaginalis (Table 3); format: cell-based
Description: as §1, §2, §3

[8] = test system: Candida Pseudotrop. ATCC 2512; experiment: MIC yeasts, Candida pseudotropicalis (Table 2); format: cell-based; settings: Sabourand broth
Description: as §4, §5
Inoculation with Candida albicans or Candida pseudotropicalis was made by diluting cultures grown for 24 h at 30° C. (cellular density inoculated 10^3 /ml).
as §6

[9] = Trichophyton mentagrophytes, +10% serum, read-out: MIC
[10] = Trichophyton mentagrophytes, without serum, read-out: MIC
[11] = Trichomonas vaginalis, read-out: MIC
[12] = Candida, ATCC2512, +10% serum, read-out: MIC
[13] = Candida, ATCC2512, without serum, read-out: MIC

## CCCCCCCCCC[N+](C)(C)CCOC(=O)C12CC3CC(CC(C3)C1)C2 (single isomer, unassigned) [Example 1, n-Decyl-dimethyl-(1-adamantane-carboxy)-ethyl-ammonium bromide]
[1]; 0.1 g/l
  sterilization time: 7.5 min
[1]; 0.25 g/l
  sterilization time: 2.5 min
[1]; 0.5 g/l
  sterilization time: 1 min
[1]; 1 g/l
  sterilization time: 1 min
[2]
  LD50 at 336 h: 910 mg/kg
Diplococcus Pneum. ISM; +10% serum
  MIC: 5 µg/mL
Diplococcus Pneum. ISM; without serum
  MIC: 1 µg/mL
[3]; 0.1 g/l
  sterilization time: 30 min
[3]; 0.25 g/l
  sterilization time: 2.5 min
[3]; 0.5 g/l
  sterilization time: 1 min
[3]; 1 g/l
  sterilization time: 1 min
[4]; 0.1 g/l
  sterilization time: 60 min
[4]; 0.25 g/l
  sterilization time: 30 min
[4]; 0.5 g/l
  sterilization time: 15 min
[4]; 1 g/l
  sterilization time: 5 min
[5]; +10% serum
  MIC: 5 µg/mL
[5]; without serum
  MIC: 0.1 µg/mL
Pseudomonas Aeruginosa; 0.25% by weight
  animals alive on the 15th day: 5
  animals dead on the 15th day: 5
  % survivors: 50%
Pseudomonas Aeruginosa; 0.5% by weight
  animals alive on the 15th day: 6
  animals dead on the 15th day: 4
Pseudomonas Aeruginosa; 1% by weight
  animals alive on the 15th day: 8
  animals dead on the 15th day: 2
  % survivors: 80%
Pseudomonas Aeruginosa; 2% by weight
  animals alive on the 15th day: 8
  animals dead on the 15th day: 2
  % survivors: 80%
Pseudomonas Aeruginosa
  efficacy in vivo (in words): secure efficacy
[6]
  MIC: 5 µg/mL
[7]; 0.1 g/l
  sterilization time: 2.5 min
[7]; 0.25 g/l
  sterilization time: 1 min
[7]; 0.5 g/l
  sterilization time: 1 min
[7]; 1 g/l
  sterilization time: 1 min
[8]; +10% serum
  MIC: 20 µg/mL
[8]; without serum
  MIC: < 0.1 µg/mL

## CCCCCCCCCCCC[N+](C)(C)CCOC(=O)C12CC3CC(CC(C3)C1)C2 [Example 4]
[1]; 0.1 g/l
  sterilization time: 7.5 min
[1]; 0.25 g/l
  sterilization time: 5 min
[1]; 0.5 g/l
  sterilization time: 1 min
[1]; 1 g/l
  sterilization time: 1 min
[2]
  LD50 at 336 h: 820 mg/kg
Diplococcus Pneum. ISM; +10% serum
  MIC: 5 µg/mL
Diplococcus Pneum. ISM; without serum
  MIC: 0.5 µg/mL
[3]; 0.1 g/l
  sterilization time: 30 min
[3]; 0.25 g/l
  sterilization time: 10 min
[3]; 0.5 g/l
  sterilization time: 5 min
[3]; 1 g/l
  sterilization time: 1 min
[4]; 0.1 g/l
  sterilization time: 60 min
[4]; 0.25 g/l
  sterilization time: 60 min
[4]; 0.5 g/l
  sterilization time: 15 min
[4]; 1 g/l
  sterilization time: 5 min
[5]; [9]
  MIC: 5 µg/mL
[5]; [10]
  MIC: 0.1 µg/mL
Pseudomonas Aeruginosa; 0.25% by weight
  animals alive on the 15th day: 4
  animals dead on the 15th day: 6
  % survivors: 40%
Pseudomonas Aeruginosa; 0.5% by weight
  animals alive on the 15th day: 6
  animals dead on the 15th day: 4
  % survivors: 60%
Pseudomonas Aeruginosa; 1% by weight
  animals alive on the 15th day: 6
  animals dead on the 15th day: 4
  % survivors: 60%
Pseudomonas Aeruginosa; 2% by weight
  animals alive on the 15th day: 7
  animals dead on the 15th day: 3
  % survivors: 70%
Pseudomonas Aeruginosa
  efficacy in vivo (in words): secure efficacy
[6]; [11]
  MIC: 5 µg/mL
[7]; 0.1 g/l
  sterilization time: 2.5 min
[7]; 0.25 g/l
  sterilization time: 1 min
[7]; 0.5 g/l
  sterilization time: 1 min
[7]; 1 g/l
  sterilization time: 1 min
[8]; [12]
  MIC: 50 µg/mL
[8]; [13]
  MIC: 0.1 µg/mL

## CCCCCCCCCCCC[N+](C)(C)CCNC(=O)C12CC3CC(CC(C3)C1)C2 [Example 8]
[2]
  LD50 at 336 h: 760 mg/kg
Diplococcus Pneum. ISM; +10% serum
  MIC: 5 µg/mL
Diplococcus Pneum. ISM; without serum
  MIC: 1 µg/mL
[3]; 0.1 g/l
  sterilization time: 60 min
[3]; 0.25 g/l
  sterilization time: 15 min
[3]; 0.5 g/l
  sterilization time: 2.5 min
[3]; 1 g/l
  sterilization time: 2.5 min
[4]; 0.1 g/l
  sterilization time: 60 min
[4]; 0.25 g/l
  sterilization time: 60 min
[4]; 0.5 g/l
  sterilization time: 10 min
[4]; 1 g/l
  sterilization time: 5 min
[5]; [9]
  MIC: 5 µg/mL
[5]; [10]
  MIC: 0.1 µg/mL
Pseudomonas Aeruginosa; 0.25% by weight
  animals alive on the 15th day: 3
  animals dead on the 15th day: 7
  % survivors: 30%
Pseudomonas Aeruginosa; 0.5% by weight
  animals alive on the 15th day: 6
  animals dead on the 15th day: 5
  % survivors: 60%
Pseudomonas Aeruginosa; 1% by weight
  animals alive on the 15th day: 6
  animals dead on the 15th day: 4
  % survivors: 60%
Pseudomonas Aeruginosa; 2% by weight
  animals alive on the 15th day: 7
  animals dead on the 15th day: 3
  % survivors: 70%
Pseudomonas Aeruginosa
  efficacy in vivo (in words): secure efficacy
[6]; [11]
  MIC: 2 µg/mL
[8]; [12]
  MIC: 20 µg/mL
[8]; [13]
  MIC: < 0.1 µg/mL
